From ChEMBL document CHEMBL1201862, “PubChem BioAssay data set” (2004)
Where a name gives a salt, the structure may show the parent alone. Calls of active or inactive are those of the source.

Key:
[1] = molecular target: T1, Oxysterols receptor LXR-beta (Homo sapiens, UniProt P55055); format: functional, cell-based;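 further: Cell-based luminescence dose-response assay of agonist activity at LXR, run as a confirmatory counterscreen to a daf-12 agonist screen; HEK293 cells with Gal4-LXR fusion and GAL4-driven luciferase reporter; agonist potency from rising luciferase signal of a Gal4-LXR reporter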
T1 sequence (P55055 whole entry): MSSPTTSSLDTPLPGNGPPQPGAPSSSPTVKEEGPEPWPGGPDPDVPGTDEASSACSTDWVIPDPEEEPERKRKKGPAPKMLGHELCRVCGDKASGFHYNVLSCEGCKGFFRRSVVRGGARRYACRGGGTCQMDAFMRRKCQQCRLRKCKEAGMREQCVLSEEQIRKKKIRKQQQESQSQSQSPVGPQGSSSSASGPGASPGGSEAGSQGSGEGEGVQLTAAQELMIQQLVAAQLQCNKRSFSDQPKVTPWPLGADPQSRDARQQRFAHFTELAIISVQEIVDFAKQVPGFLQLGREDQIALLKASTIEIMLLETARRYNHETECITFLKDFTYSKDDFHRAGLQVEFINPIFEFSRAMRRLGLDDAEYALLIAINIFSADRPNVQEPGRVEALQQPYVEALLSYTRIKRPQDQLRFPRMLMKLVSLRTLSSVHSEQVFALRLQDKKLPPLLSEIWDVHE

[2] = ADAM10 protease inhibitors, dose response, selectivity assay for ADAM17 exosite inhibitor project, biochemical, FRET peptide substrate, recombinant human ADAM10 (AID 743259);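 further: ADAM10 enzyme cleaving a FRET peptide substrate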
[3] = molecular target: T2, Histone-lysine N-methyltransferase NSD2 (Homo sapiens, UniProt O96028); format: biochemical
T2 sequence (O96028 whole entry): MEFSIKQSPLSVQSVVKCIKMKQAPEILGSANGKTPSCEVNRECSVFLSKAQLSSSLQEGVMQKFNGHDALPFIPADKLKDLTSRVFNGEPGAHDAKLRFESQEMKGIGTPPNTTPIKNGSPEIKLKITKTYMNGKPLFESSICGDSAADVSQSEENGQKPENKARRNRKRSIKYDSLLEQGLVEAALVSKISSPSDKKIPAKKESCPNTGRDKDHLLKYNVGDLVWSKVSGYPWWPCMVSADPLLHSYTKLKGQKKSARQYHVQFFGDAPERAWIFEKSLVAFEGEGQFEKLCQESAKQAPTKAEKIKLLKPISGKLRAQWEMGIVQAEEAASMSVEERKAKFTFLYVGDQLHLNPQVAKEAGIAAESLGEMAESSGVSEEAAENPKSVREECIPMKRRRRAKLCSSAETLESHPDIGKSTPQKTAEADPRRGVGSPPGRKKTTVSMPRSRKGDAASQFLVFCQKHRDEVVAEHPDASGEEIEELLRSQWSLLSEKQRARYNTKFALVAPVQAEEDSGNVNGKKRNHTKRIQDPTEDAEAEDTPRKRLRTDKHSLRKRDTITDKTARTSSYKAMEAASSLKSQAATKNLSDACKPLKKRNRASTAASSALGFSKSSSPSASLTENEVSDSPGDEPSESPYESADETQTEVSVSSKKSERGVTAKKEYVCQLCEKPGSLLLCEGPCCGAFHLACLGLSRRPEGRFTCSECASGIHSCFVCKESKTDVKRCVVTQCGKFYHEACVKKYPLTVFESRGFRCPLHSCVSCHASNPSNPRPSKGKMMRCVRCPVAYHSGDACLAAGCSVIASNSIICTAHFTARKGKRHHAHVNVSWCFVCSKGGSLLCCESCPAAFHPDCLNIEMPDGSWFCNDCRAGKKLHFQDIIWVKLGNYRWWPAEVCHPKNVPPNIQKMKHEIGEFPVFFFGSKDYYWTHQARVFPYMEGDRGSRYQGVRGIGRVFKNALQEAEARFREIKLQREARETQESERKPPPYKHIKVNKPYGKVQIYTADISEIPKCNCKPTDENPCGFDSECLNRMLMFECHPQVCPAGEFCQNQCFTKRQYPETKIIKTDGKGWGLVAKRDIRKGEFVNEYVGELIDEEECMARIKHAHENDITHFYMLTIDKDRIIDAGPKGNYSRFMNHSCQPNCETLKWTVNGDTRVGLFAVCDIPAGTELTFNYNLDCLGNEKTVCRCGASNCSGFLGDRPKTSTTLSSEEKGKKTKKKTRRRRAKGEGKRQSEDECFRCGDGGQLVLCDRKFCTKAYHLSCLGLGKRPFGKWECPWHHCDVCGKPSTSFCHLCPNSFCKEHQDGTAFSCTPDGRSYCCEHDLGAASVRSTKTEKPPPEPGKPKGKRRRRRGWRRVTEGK

[4] = molecular target: T3, Small ubiquitin-related modifier 1 (Homo sapiens, UniProt P63165); test: inhibitors of SUMO1 partner interactions, dose response, biochemical, FRET (AID 624383); format: functional; settings: read-out: IC50_Mean
[5] = molecular target: T4, DNA repair and recombination protein RAD54-like (Homo sapiens, UniProt Q92698); test: inhibitors of human RAD54 branch migration, confirmation, biochemical, fluorescence, cherry-picked samples, dose series (AID 651657); format: functional
T4 sequence (Q92698 whole entry): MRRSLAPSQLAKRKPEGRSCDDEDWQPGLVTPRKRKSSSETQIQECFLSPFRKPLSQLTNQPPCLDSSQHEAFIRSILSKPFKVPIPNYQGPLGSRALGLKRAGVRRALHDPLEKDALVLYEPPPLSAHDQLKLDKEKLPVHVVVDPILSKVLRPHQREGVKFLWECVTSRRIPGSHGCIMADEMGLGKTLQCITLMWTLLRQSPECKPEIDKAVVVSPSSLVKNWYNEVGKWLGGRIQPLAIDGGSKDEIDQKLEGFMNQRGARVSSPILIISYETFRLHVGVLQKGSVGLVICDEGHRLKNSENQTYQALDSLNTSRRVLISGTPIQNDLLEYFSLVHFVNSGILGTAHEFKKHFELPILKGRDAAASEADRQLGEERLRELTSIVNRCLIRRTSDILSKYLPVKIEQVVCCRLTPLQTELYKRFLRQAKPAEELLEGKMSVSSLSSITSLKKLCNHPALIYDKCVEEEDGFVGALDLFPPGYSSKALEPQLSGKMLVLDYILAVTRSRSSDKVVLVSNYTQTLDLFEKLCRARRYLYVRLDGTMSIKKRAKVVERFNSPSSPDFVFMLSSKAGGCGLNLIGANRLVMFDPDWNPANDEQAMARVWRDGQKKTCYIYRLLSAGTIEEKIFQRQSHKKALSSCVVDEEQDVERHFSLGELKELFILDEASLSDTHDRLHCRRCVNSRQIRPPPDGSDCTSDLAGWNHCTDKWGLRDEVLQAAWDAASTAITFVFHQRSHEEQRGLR

[6] = molecular target: T5, DNA repair protein RAD52 homolog (Homo sapiens, UniProt P43351); format: functional, biochemical
T5 sequence (P43351 whole entry): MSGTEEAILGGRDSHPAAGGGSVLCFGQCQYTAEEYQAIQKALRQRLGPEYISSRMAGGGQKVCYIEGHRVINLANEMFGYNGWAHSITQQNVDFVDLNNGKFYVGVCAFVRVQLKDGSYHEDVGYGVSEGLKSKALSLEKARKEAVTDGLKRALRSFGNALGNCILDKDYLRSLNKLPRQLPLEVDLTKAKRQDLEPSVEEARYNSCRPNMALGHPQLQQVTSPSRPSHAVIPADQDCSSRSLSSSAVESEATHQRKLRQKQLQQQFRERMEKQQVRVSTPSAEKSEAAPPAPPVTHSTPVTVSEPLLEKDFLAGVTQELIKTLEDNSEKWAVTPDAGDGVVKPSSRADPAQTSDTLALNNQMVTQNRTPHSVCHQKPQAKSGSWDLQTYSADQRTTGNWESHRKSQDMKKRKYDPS

[7] = molecular target: T3, Small ubiquitin-related modifier 1; test: inhibitors of SUMO1 peptide binding, dose response, biochemical, fluorescence polarization, uHTS hits (AID 624382); format: functional; settings: read-out: IC50_Mean
[8] = HepG2 cell cytotoxicity, dose response, cytotoxicity control, ATP luminescence, cherry-pick, activator set 2 (AID 1053143); format: functional, cell-based
[9] = A2780 ovarian cancer cell cytotoxicity, dose response, cytotoxicity control, plate reader, dry powder samples (AID 743046); format: functional, cell-based
Paired box protein Pax-8 = Paired box protein Pax-8 (Homo sapiens, UniProt Q06710); test: inhibitors of PAX8-driven TPO luciferase reporter, dose response, RMG-I cells, cherry-pick (AID 687027); format: functional, cell-based;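 further: luciferase reporter driven by Pax8 target thyroperoxidase promoter measured by SteadyGlo luminescence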
[10] = molecular target: Disintegrin and metalloproteinase domain-containing protein 17 (Homo sapiens, UniProt P78536); test: exosite inhibitors of ADAM17, dose response, biochemical (AID 743260)
[11] = T. cruzi growth inhibition in host cells, dose response, cell-based, plate reader, dry powder, set 2 (AID 652275); format: functional
[12] = Luminescence Cell-Based Dose Retest to Confirm Inhibitors of Cancer Stem Cells. [Related pubchem assays (depositor defined):AID2717, AID2721]; format: functional; settings: Homo sapiens
[13] = LGR2 antagonists, dose response, cell-based, HEK293, CRE-luciferase reporter, cherry pick, set 2 (AID 743343); format: functional;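 further: transfected cells were stimulated with diluted bursicon conditioned medium after compound addition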
[14] = HEK293 cell cytotoxicity, dose response, cytotoxicity control, plate reader, cherry-picked samples (AID 743446); format: functional, cell-based
[15] = molecular target: T6, Ubiquitin-conjugating enzyme E2 N (Homo sapiens, UniProt P61088); format: functional;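 further: Dose-response confirmation in a TR-FRET assay detecting UBC13-driven polyubiquitin chain formation, inhibition measured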
T6 sequence (P61088 whole entry): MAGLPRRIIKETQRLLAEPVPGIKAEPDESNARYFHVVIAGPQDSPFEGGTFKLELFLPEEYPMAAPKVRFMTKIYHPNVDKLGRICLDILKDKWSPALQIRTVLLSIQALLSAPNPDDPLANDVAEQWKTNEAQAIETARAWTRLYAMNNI

[16] = MC4R antagonists, dose response, counter-screen for LGR2 antagonist project, cell-based, plate reader, cherry pick (AID 743444); format: functional
[17] = inhibitors of PGC1a acetylation in cells, dose response, cell-based, cherry-picked samples (AID 720514); format: functional;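 further: potency may reflect raised or lowered acetylation signal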
[18] = A549 cell cytotoxicity, dose response, cytotoxicity control, plate reader, cherry-pick, antagonist series (AID 743412); format: functional, cell-based
[19] = HepG2 cell cytotoxicity, dose response, cytotoxicity control, plate reader, cherry-pick, antagonist series (AID 743416); format: functional, cell-based

Disintegrin and metalloproteinase domain-containing protein 17, sequence (P78536 whole entry, the tested form may be a part): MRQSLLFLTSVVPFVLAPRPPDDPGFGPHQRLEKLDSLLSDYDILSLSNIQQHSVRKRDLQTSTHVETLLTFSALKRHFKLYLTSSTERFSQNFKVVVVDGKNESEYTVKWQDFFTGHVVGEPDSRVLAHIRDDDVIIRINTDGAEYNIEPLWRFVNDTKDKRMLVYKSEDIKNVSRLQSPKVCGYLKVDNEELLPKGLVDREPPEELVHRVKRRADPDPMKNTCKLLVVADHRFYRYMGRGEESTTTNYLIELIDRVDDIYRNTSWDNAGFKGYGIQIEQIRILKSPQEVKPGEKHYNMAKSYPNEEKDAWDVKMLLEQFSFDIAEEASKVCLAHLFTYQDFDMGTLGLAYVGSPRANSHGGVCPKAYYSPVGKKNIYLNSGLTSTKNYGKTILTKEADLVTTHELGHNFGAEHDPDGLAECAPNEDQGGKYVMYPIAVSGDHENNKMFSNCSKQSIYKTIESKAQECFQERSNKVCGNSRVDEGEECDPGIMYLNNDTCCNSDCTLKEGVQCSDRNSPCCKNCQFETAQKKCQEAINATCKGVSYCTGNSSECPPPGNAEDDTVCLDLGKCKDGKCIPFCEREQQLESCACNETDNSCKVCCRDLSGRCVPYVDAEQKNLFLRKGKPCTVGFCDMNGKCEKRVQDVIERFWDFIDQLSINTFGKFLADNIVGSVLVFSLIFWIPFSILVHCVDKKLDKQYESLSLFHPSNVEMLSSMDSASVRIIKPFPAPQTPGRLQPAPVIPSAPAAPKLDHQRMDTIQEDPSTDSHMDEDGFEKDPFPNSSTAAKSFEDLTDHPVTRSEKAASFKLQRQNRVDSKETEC
T3 sequence (P63165 whole entry): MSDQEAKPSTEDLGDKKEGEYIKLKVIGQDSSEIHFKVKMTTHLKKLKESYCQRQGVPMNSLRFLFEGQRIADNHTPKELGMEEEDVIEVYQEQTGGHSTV
Paired box protein Pax-8, sequence (Q06710 whole entry, the tested form may be a part): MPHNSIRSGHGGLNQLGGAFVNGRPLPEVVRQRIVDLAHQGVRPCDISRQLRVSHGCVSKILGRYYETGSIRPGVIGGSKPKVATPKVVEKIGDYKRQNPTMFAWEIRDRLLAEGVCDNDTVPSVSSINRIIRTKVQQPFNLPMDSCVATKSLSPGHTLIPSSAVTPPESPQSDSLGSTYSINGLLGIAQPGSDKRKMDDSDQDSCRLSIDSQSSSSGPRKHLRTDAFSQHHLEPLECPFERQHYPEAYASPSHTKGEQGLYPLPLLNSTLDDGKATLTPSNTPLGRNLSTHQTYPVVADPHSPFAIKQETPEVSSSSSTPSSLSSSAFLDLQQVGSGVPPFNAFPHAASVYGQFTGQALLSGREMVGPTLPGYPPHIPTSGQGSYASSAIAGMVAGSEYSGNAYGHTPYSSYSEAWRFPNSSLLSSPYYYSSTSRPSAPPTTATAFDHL

Structure (SMILES): CC1=NN(C(N)=S)C(=O)C1N=Nc1ccc(C)cc1C (stereo not drawn)
- EC50 [1]: > 67.5 µM (inactive)
- EC50 (cells): > 67.5 µM (inactive)

Structure (SMILES): COc1cc(C(c2c(C)n[nH]c2O)c2c(C)n[nH]c2O)ccc1OCc1ccc([N+](=O)[O-])cc1
- IC50 [2]: > 23.2 µM (inactive)

Structure (SMILES): Cc1cc(/C=C2\C(=O)NC(=O)N(Cc3ccccc3Cl)C2=O)c(C)n1-c1ccc(C(=O)O)cc1
- AC50 [3]: > 20 µM (inactive)

Structure (SMILES): COc1cccc(-c2nc(-c3ccccc3)no2)c1
- EC50 [1]: > 67.6 µM (inactive)
- EC50 (cells): > 67.6 µM (inactive)

Structure (SMILES): CN(C)CCNC(=O)c1cccc(-c2cnc3c(NC=O)cc(-c4cccs4)cn23)c1
- IC50 [4]: 1.82 µM (active)
- AC50 [5]: 15.6 µM (active)
- AC50 [6]: 8.36 µM (active)
- IC50 [7]: > 66.6 µM (inactive)

Structure (SMILES): CN(C)c1ccc(C=Cc2ccnc3ccccc23)cc1N
- AC50 [8]: 26 µM (active)

Structure (SMILES): C[C@H](CO)N1C[C@H](C)[C@@H](CN(C)Cc2ccc(Cl)c(Cl)c2)OCCCC[C@H](C)Oc2ccc(NS(=O)(=O)c3ccccc3)cc2C1=O
- AC50 [9]: < 0.26 µM (active)
- AC50 (Paired box protein Pax-8): 17.5 µM (active)

Structure (SMILES): O=C(CSc1nc2ccccc2o1)NN=C/C=C/c1ccccc1
- IC50 [2]: > 69.5 µM (inactive)
- IC50 [10]: > 69.5 µM (inactive)

Structure (SMILES): O=C(C1CCC1)N1CCCCN2[C@@H](CO)[C@H](c3ccc(-c4cccc(F)c4)cc3)[C@@H]2C1
- AC50 [11]: 0.227 µM (active)

Structure (SMILES): Cc1ccccc1-n1c(SCC(=O)N/N=C/C=C/c2ccccc2[N+](=O)[O-])nc2ccccc2c1=O
- IC50 [2]: 4.51 µM (active)
- IC50 [10]: > 69.5 µM (inactive)
- AC50 [12]: > 195 µM (inactive)

Structure (SMILES): Cc1cc(N2CCN(C)CC2)nc2ccc(NC(=S)NCCCN3CCc4ccccc4C3)cc12
- AC50 [5]: 28.1 µM (active)
- AC50 [6]: 3.85 µM (active)

Structure (SMILES): OC(c1cc(C(F)(F)F)nc2c(C(F)(F)F)cccc12)C1CCCCN1 (stereo not drawn) [MEFLOQUINE HYDROCHLORIDE]
- AC50 [13]: 9.96 µM (active)
- AC50 [14]: 5.19 µM (active)
- IC50 [15]: > 20 µM (inactive)
- AC50 [17]: 7.13 µM (active)
- AC50 [18]: 8.37 µM (active)
- AC50 [19]: 11.6 µM (active)
